# Assays:
# H. inflenza ATCC 49247 = experiment: MIC, agar incorporation method (NCCLS agar dilution method); type: cell-based, Haemophilus influenzae; conditions: agar dilution, 18-24 hours, 35±2° C., 5% CO2
# Method: Minimum inhibitory concentrations (μg/ml) were obtained for representative compounds of the invention, which are given in Table 2.
# (§1) Drug dilutions and the agar plates are prepared by NCCLS method. Inoculum is prepared by direct colony suspensions in normal saline and adjusted to 0.5 McFarland turbidity and subsequently diluted as per NCCLS guidelines in order to obtain 10^4 CFU/spot. CFU/ml of a few randomly selected cultures is performed. The cultures are replicated on the agar plates using replicator (Denley's multipoint). The plates are incubated at 35±2° C. and in 5% CO2 atmosphere (for respiratory and Haemophilus strains) for 18-24 hours at 35±2° C. Minimum inhibitory concentrations (MIC) are determined after 18-24 hours. Q. C. strains are also included in each run of the study. The cation content of Mueller Hinton agar is checked by performing disk […] of 10 μg gentamicin disk against Pseudomonas aeroginosa ATCC 27853. The zone of inhibition should fall between 16-21 mm. The concentration of drug at which there is complete disappearance of growth spot or formation of less than 10 colonies per spot is considered as MIC.
# MoraXella MI = experiment: as above; type: cell-based; conditions: 18-24 hours, 35±2° C.
# Method: as §1
# S. pneum 1294 (mef) = experiment: microbe, parasite or virus in culture; type: cell-based, streptococcus pneumoniae; conditions: agar dilution, 18-24 hours, 35±2° C., 5% CO2; mef: efflux pump mef genes
# Method: as §1
# S. pneum AB 14 (erm) = experiment: microbe, parasite or virus in culture; type: cell-based, streptococcus pneumoniae; conditions: agar dilution, 18-24 hours, 35±2° C., 5% CO2; erm: ribosomal modification (mutation) erm genes
# Method: as §1
# S. pneum AB 30 (erm) = experiment: microbe, parasite or virus in culture; type: cell-based, streptococcus pneumoniae; conditions: agar dilution, 18-24 hours, 35±2° C., 5% CO2; erm: ribosomal modification (mutation) erm genes
# Method: as §1
# S. pneum 1256 (erm) = experiment: microbe, parasite or virus in culture; type: cell-based, streptococcus pneumoniae; conditions: agar dilution, 18-24 hours, 35±2° C., 5% CO2; erm: ribosomal modification (mutation) erm genes
# Method: as §1
# S. pneum 1275 (erm) = experiment: microbe, parasite or virus in culture; type: cell-based, streptococcus pneumoniae; conditions: agar dilution, 18-24 hours, 35±2° C., 5% CO2; erm: ribosomal modification (mutation) erm genes
# Method: as §1
# S. pneum AB 34 (mef) = experiment: MIC, agar incorporation method (NCCLS agar dilution method); type: cell-based, streptococcus pneumoniae; conditions: 18-24 hours, 35±2° C., 5% CO2, mef: efflux pump mef genes
# Method: as §1
# S. pneum CS 1687 (mef) = experiment: as above; type: cell-based, streptococcus pneumoniae; conditions: 18-24 hours, 35±2° C., 5% CO2, mef: efflux pump mef genes
# Method: as §1
# S. pneum ATCC 6303 = experiment: as above; type: cell-based, streptococcus pneumoniae; conditions: 18-24 hours, 35±2° C., 5% CO2
# Method: as §1
# S. pneum 1251 (mef) = experiment: as above; type: cell-based, streptococcus pneumoniae; conditions: 18-24 hours, 35±2° C., 5% CO2, mef: efflux pump mef genes
# Method: as §1
# S. pneum ATCC 49619 = experiment: as above; type: cell-based, streptococcus pneumoniae; conditions: 18-24 hours, 35±2° C., 5% CO2
# Method: as §1
# S. pneum AB 29 (erm) = experiment: microbe, parasite or virus in culture; type: cell-based, streptococcus pneumoniae; conditions: agar dilution, 18-24 hours, 35±2° C., 5% CO2; erm: ribosomal modification (mutation) erm genes
# Method: as §1
molecule,measurement,setting,value
3-O-(3-Fluorophenyl)acetyl-5-O-[3′-N-desmethyl-3′-N-cyclopropyl)desosaminyl-6-O-methyl erythronolide A [Compound No. 16],"Minimum Inhibitory Concentrations, H. inflenza ATCC 49247",H. inflenza ATCC 49247,>16 µg/mL
same,"Minimum Inhibitory Concentrations, MoraXella MI",MoraXella MI,>16 µg/mL
same,"Minimum Inhibitory Concentrations, S. pneum 1294 (mef)",S. pneum 1294 (mef),1 µg/mL
same,"Minimum Inhibitory Concentrations, S. pneum AB 14 (erm)",S. pneum AB 14 (erm),>16 µg/mL
same,"Minimum Inhibitory Concentrations, S. pneum AB 30 (erm)",S. pneum AB 30 (erm),>16 µg/mL
same,"Minimum Inhibitory Concentrations, S. pneum 1256 (erm)",S. pneum 1256 (erm),16 µg/mL
same,"Minimum Inhibitory Concentrations, S. pneum 1275 (erm)",S. pneum 1275 (erm),>16 µg/mL
same,"Minimum Inhibitory Concentrations, S. pneum AB 34 (mef)",S. pneum AB 34 (mef),>16 µg/mL
same,"Minimum Inhibitory Concentrations, S. pneum CS 1687 (mef)",S. pneum CS 1687 (mef),4 µg/mL
same,"Minimum Inhibitory Concentrations, S. pneum ATCC 6303",S. pneum ATCC 6303,1 µg/mL
same,"Minimum Inhibitory Concentrations, S. pneum 1251 (mef)",S. pneum 1251 (mef),8 µg/mL
same,"Minimum Inhibitory Concentrations, S. pneum ATCC 49619",S. pneum ATCC 49619,4 µg/mL
"CCC1OC(=O)C(C)C(OC(=O)Cc2ccccc2F)C(C)C(OC2OC(C)CC(N(C)Cc3ccc(F)cc3)C2O)C(C)(OC)CC(C)C(=O)C(C)C(O)C1(C)O (stereo not drawn) [Compound No. 5, 3-O-(2-Fluorophenyl)acetyl-5-O-[3′-N-desmethyl-3′-N-(4-fluoro)benzyl]desosaminyl-6-O-methyl erythronolide A]","Minimum Inhibitory Concentrations, H. inflenza ATCC 49247",H. inflenza ATCC 49247,>128 µg/mL
same,"Minimum Inhibitory Concentrations, MoraXella MI",MoraXella MI,>8 µg/mL
same,"Minimum Inhibitory Concentrations, S. pneum 1294 (mef)",S. pneum 1294 (mef),2 µg/mL
same,"Minimum Inhibitory Concentrations, S. pneum AB 14 (erm)",S. pneum AB 14 (erm),>8 µg/mL
same,"Minimum Inhibitory Concentrations, S. pneum AB 30 (erm)",S. pneum AB 30 (erm),>8 µg/mL
same,"Minimum Inhibitory Concentrations, S. pneum 1256 (erm)",S. pneum 1256 (erm),>8 µg/mL
same,"Minimum Inhibitory Concentrations, S. pneum 1275 (erm)",S. pneum 1275 (erm),>16 µg/mL
same,"Minimum Inhibitory Concentrations, S. pneum AB 34 (mef)",S. pneum AB 34 (mef),>8 µg/mL
same,"Minimum Inhibitory Concentrations, S. pneum CS 1687 (mef)",S. pneum CS 1687 (mef),2 µg/mL
same,"Minimum Inhibitory Concentrations, S. pneum ATCC 6303",S. pneum ATCC 6303,2 µg/mL
same,"Minimum Inhibitory Concentrations, S. pneum 1251 (mef)",S. pneum 1251 (mef),2 µg/mL
same,"Minimum Inhibitory Concentrations, S. pneum ATCC 49619",S. pneum ATCC 49619,2 µg/mL
"CCC1OC(=O)C(C)C(OC(=O)Cc2ccc3ccccc3c2)C(C)C(OC2OC(C)CC(N(C)Cc3ccccc3)C2O)C(C)(OC)CC(C)C(=O)C(C)C(O)C1(C)O (stereo not drawn) [Compound No. 73, 3-O-(2-Naphthyl)acetyl-5-O-(3′-N-desmethyl-3′-N-benzyl) desosaminyl-6-O-methyl erythronolide A]","Minimum Inhibitory Concentrations, MoraXella MI",MoraXella MI,16 µg/mL
same,"Minimum Inhibitory Concentrations, S. pneum 1294 (mef)",S. pneum 1294 (mef),>16 µg/mL
same,"Minimum Inhibitory Concentrations, S. pneum AB 14 (erm)",S. pneum AB 14 (erm),>16 µg/mL
same,"Minimum Inhibitory Concentrations, S. pneum AB 29 (erm)",S. pneum AB 29 (erm),>16 µg/mL
same,"Minimum Inhibitory Concentrations, S. pneum AB 30 (erm)",S. pneum AB 30 (erm),>16 µg/mL
same,"Minimum Inhibitory Concentrations, S. pneum 1256 (erm)",S. pneum 1256 (erm),>16 µg/mL
same,"Minimum Inhibitory Concentrations, S. pneum 1275 (erm)",S. pneum 1275 (erm),>16 µg/mL
same,"Minimum Inhibitory Concentrations, S. pneum AB 34 (mef)",S. pneum AB 34 (mef),>16 µg/mL
same,"Minimum Inhibitory Concentrations, S. pneum CS 1687 (mef)",S. pneum CS 1687 (mef),2 µg/mL
same,"Minimum Inhibitory Concentrations, S. pneum ATCC 6303",S. pneum ATCC 6303,1 µg/mL
same,"Minimum Inhibitory Concentrations, S. pneum 1251 (mef)",S. pneum 1251 (mef),2 µg/mL
same,"Minimum Inhibitory Concentrations, S. pneum ATCC 49619",S. pneum ATCC 49619,2 µg/mL
"CCC1OC(=O)C(C)C(OC(=O)Cc2ccc(F)cc2F)C(C)C(OC2OC(C)CC(N(C)Cc3ccccc3)C2O)C(C)(OC)CC(C)C(=O)C(C)C(O)C1(C)O (stereo not drawn) [Compound No. 74, 3-O-(2,4-Difluorophenyl)acetyl-5-O-(3′-N-desmethyl-3′-N-benzyl) desosaminyl-6-O-methyl erythronolide A]","Minimum Inhibitory Concentrations, MoraXella MI",MoraXella MI,>16 µg/mL
same,"Minimum Inhibitory Concentrations, S. pneum 1294 (mef)",S. pneum 1294 (mef),>16 µg/mL
same,"Minimum Inhibitory Concentrations, S. pneum AB 14 (erm)",S. pneum AB 14 (erm),16 µg/mL
same,"Minimum Inhibitory Concentrations, S. pneum AB 29 (erm)",S. pneum AB 29 (erm),>16 µg/mL
same,"Minimum Inhibitory Concentrations, S. pneum AB 30 (erm)",S. pneum AB 30 (erm),>16 µg/mL
same,"Minimum Inhibitory Concentrations, S. pneum 1256 (erm)",S. pneum 1256 (erm),>16 µg/mL
same,"Minimum Inhibitory Concentrations, S. pneum 1275 (erm)",S. pneum 1275 (erm),>16 µg/mL
same,"Minimum Inhibitory Concentrations, S. pneum AB 34 (mef)",S. pneum AB 34 (mef),>16 µg/mL
same,"Minimum Inhibitory Concentrations, S. pneum CS 1687 (mef)",S. pneum CS 1687 (mef),>16 µg/mL
same,"Minimum Inhibitory Concentrations, S. pneum ATCC 6303",S. pneum ATCC 6303,8 µg/mL
same,"Minimum Inhibitory Concentrations, S. pneum 1251 (mef)",S. pneum 1251 (mef),>16 µg/mL
same,"Minimum Inhibitory Concentrations, S. pneum ATCC 49619",S. pneum ATCC 49619,>16 µg/mL
3-O-(3-Fluorophenyl)acetyl-5-O-(3′-N-desmethyl-3′-N-propargyl)desosaminyl-6-O-methyl erythronolide A [Compound No. 22],"Minimum Inhibitory Concentrations, H. inflenza ATCC 49247",H. inflenza ATCC 49247,>16 µg/mL
same,"Minimum Inhibitory Concentrations, MoraXella MI",MoraXella MI,4 µg/mL
same,"Minimum Inhibitory Concentrations, S. pneum 1294 (mef)",S. pneum 1294 (mef),4 µg/mL
same,"Minimum Inhibitory Concentrations, S. pneum AB 14 (erm)",S. pneum AB 14 (erm),>16 µg/mL
same,"Minimum Inhibitory Concentrations, S. pneum AB 30 (erm)",S. pneum AB 30 (erm),>16 µg/mL
same,"Minimum Inhibitory Concentrations, S. pneum 1256 (erm)",S. pneum 1256 (erm),>16 µg/mL
same,"Minimum Inhibitory Concentrations, S. pneum 1275 (erm)",S. pneum 1275 (erm),>16 µg/mL
same,"Minimum Inhibitory Concentrations, S. pneum AB 34 (mef)",S. pneum AB 34 (mef),>16 µg/mL
same,"Minimum Inhibitory Concentrations, S. pneum CS 1687 (mef)",S. pneum CS 1687 (mef),1 µg/mL
same,"Minimum Inhibitory Concentrations, S. pneum ATCC 6303",S. pneum ATCC 6303,0.5 µg/mL
same,"Minimum Inhibitory Concentrations, S. pneum 1251 (mef)",S. pneum 1251 (mef),4 µg/mL
same,"Minimum Inhibitory Concentrations, S. pneum ATCC 49619",S. pneum ATCC 49619,0.5 µg/mL

# Source: patent US20070270484A1, “3'-N-Substituted-3-O-Substituted Erythronolide a Derivatives” (priority 2003, published 2007)
